Source: patent publication US8822526B2, “Synergistic pharmaceutical combination for the treatment of cancer” (Piramal Enterprises Limited, priority 2007, dated 2014)
Several values for one entry are separate records, joined by “and”; a condition that tells them apart may be missing. Equal entries are not always repeated. Where two headings read alike, the source gives them in different places.

What was measured:
[1] = system: human pancreatic (Panc-1) cell line; assay: In vitro cytotoxicity assay (MTS); assay type: cell-based
[2] = system: human non-small cell lung carcinoma H-460 cells; assay: In vitro cytotoxicity assay (MTS)
Method: The cytotoxicity assay used was MTS (3-(4,5-dimethylthiazol-2-yl)-5-(3-carboxymethoxyphenyl)-2-(4-sulfophenyl)-2H-tetrazolium, inner salt) assay. The human non-small cell lung carcinoma H-460 cells were seeded at a density of 1500 cells/well in 180 μL of culture medium in 96-well plate and incubated overnight to allow the cells to adhere. Varying concentrations of the drugs contained in the combination were added to the wells and incubated for an appropriate period of time in humidified 5% CO2 incubator at 37° C. in case of a single drug exposure. […] Control wells were treated with a vehicle. At the end of the incubation period, the medium was removed from the wells and 20 μL of MTS (2 mg/mL in phosphate buffer saline, pH 6-6.5 and filter sterilized) and 1 μL of phenazine methosulfate (PMS, 3 mM in phosphate buffered saline, pH 7.3 and filter sterilized) was added to each well and the total volume was adjusted to 200 μL with complete medium. The plate was incubated for 2-4 hours in humidified 5% CO2 incubator at 37° C.
(§1) After completion of the drugs treatment i.e. at the end of 96 hours the plates were processed for MTS viability assay and the percent cytotoxicity was calculated as compared to control.
as §1
(§2) The human non-small cell lung carcinoma H-460 cells were seeded at a density of 1500 cells/well. […] After completion of the drugs treatment i.e. at the end of 120 hours the plates were processed for MTS viability assay and the percent cytotoxicity was calculated as compared to control.
as §2
The human non-small cell lung carcinoma H-460 cells were seeded at a density of 1500 cells/well. […] After completion of the drugs treatment i.e. at the end of 120 hours, the plates were processed for MTS viability assay and the percent cytotoxicity was calculated as compared to control.
(§3) After completion of the drugs treatment i.e. at the end of 48 hours the plates were processed for MTS viability assay and the percent cytotoxicity was calculated as compared to control.
The plates were processed for MTS viability assay and the percent cytotoxicity was calculated as compared to control.
as §3
The human non-small cell lung carcinoma H-460 cells were seeded at a density of 1500 cells/well. As per Table 16A the cells were first treated with either of the drugs alone i.e. with doxorubicin or flavopiridol alone. Doxorubicin treatment was for the first 24 hours followed by complete medium for 96 hours while in case of flavopiridol, the first 24 hours was in complete medium followed by flavopiridol for the next 96 hours. […] After completion of the drugs treatment i.e. at the end of 120 hours the plates were processed for MTS viability assay and the percent cytotoxicity was calculated as compared to control.
As per Table 16B the cells were first treated with either of the drugs alone i.e. with doxorubicin or flavopiridol alone. Flavopiridol treatment was for the first 96 hours followed by complete medium for 24 hours while in case of doxorubicin, the first 96 hours was in complete medium followed by doxorubicin for 24 hours. […] After completion of the drugs treatment i.e. at the end of 120 hours, the plates were processed for MTS viability assay and the percent cytotoxicity was calculated as compared to control.
The human non-small cell lung carcinoma H-460 cells were seeded at a density of 1500 cells/well.

[3] = system: pancreatic cells (Panc-1); assay: Analysis of cell cycle distribution and flow cytometry (sub G1 apoptosis); assay type: cell-based, human; settings: FIG. 3: 70 nM gemcitabine alone (24 hours); 300 nM compound A alone (72 hours); combination 70 nM gemcitabine (24 hours) followed by 300 nM compound A (72 hours)
[4] = system: human non-small cell lung carcinoma H-460; assay: Annexin V-FITC staining (detection of early apoptosis); assay type: cell-based; settings: doxorubicin 100 nM 24 hours; compound A 1200 nM 96 hours; combination doxorubicin 24 hours followed by compound A 96 hours
Method: Annexin V-FITC is a sensitive probe for identifying apoptotic cells. During early apoptosis the membrane phospholipid phosphotidyl serine (PS) is translocated from the inner to the outer leaflet of the plasma membrane, thereby exposing PS to the external cellular environment. Annexin V is a 35-36 kDa Calcium phospholipid binding protein that has a high affinity for PS and binds to cells with exposed PS. […] The human non-small cell lung carcinoma H-460 was seeded in 25 mm^3 tissue culture flasks. […] The control cells were left untreated for 120 hours. Medium containing floating cells were collected and pooled with the adherent cells after harvesting with trypsin at the different time points. The cells were washed twice with cold PBS with centrifugation at 1000 rpm for 10 minutes. The cell pellet was resuspended in 1× binding buffer (10 mm HEPES pH 7.4, 140 mM NaCl, 2.5 mM CaCl2) at a concentration of 1×10^6 cells/mL. 100 μl of the solution (1×10^5 cells) were stained with Annexin V-FITC and Propidium Iodide. The cells were incubated for 15 minutes at room temperature in the dark and the sample was analysed by flow cytometry. A Becton Dickinson FACS Calibur flow cytometer was used for these studies in accordance with the manufacturer's recommendations. The argon ion laser set at 488 nm was used as an excitation source. […] If the cells even after the termination of compound exposure continue to go into apoptosis, they would stain positive for annexin. The cells once in early apoptosis are committed to programmed cell death and at a point of no return.

NCI-H460/R = settings: J. Chemother., 2006 February; 18(1) 66-73; cited from earlier work

**Q.** What does the source list for CN1CC[C@@H](c2c(O)cc(O)c3c(=O)cc(-c4ccccc4Cl)oc23)[C@@H]1CO.Cl [Compound A, (+)-trans-2-(2-Chloro-phenyl)-5,7-dihydroxy-8-(2-hydroxymethyl-1-methyl-pyrrolidin-3-yl)-chromen-4-one hydrochloride]?
**A.** IC30 concentration after 48 hours treatment ([1]; Panc-1 cells, 48 hours treatment): ~0.3 µM; % Cytotoxicity ([1]; complete medium 24 hours, then compound A 300 nM 72 hours): 34%; IC30 concentration after 48 hours treatment ([2]; H-460 cells, 48 hours treatment, hydrochloride): 0.8 µM and ~0.7 µM; IC50 ([2]; Homo sapiens, NCI-H460, 48 h, read-out: IC50 concentration after 48 hours treatment, H-460 cells, 48 hours treatment): 1.2 µM; cytotoxicity at 0.8 µM ([2]; Homo sapiens, NCI-H460, 120 h, compound A 800 nM alone for 120 hours): 24%; cytotoxicity at 1.2 µM ([2]; Homo sapiens, NCI-H460, 120 h, compound A 1200 nM alone for 120 hours): 44%; % Cytotoxicity ([2]; human, 45 h, 1000 nM): 35%; % Cytotoxicity ([2]; human, 72 h, 800 nM): 17%; % Cytotoxicity ([2]; human, 72 h, 1200 nM): 36%; % Cytotoxicity ([2]; human, 96 h, 800 nM): 19%; IC50 ([2]; read-out: IC50 concentration after 48 hours treatment, H-460 cells, 48 hours treatment, hydrochloride): ~1 µM; apoptosis (sub G1 phase) [3]: 4.3%; Annexin + ve (%) (cells in early apoptosis) [4]: 38.5%; Annexin and PI + ve (%) (cells in early to late apoptosis) [4]: 8.2%; Live cells (%) (healthy cells) [4]: 53%; PI + ve (%) (dead cells) [4]: 0.3%

**Q.** What does the source list for COc1cccc2c1C(=O)c1c(O)c3c(c(O)c1C2=O)C[C@@](O)(C(=O)CO)C[C@@H]3O[C@H]1C[C@H](N)[C@H](O)[C@H](C)O1 [Doxorubicin]?
**A.** % Cytotoxicity ([2]; Doxorubicin 30 nM alone for 120 hours): 2%; % Cytotoxicity ([2]; Doxorubicin 30 nM first 24 hours, then complete medium 96 hours, MTS at 120 hours): 0%; % Cytotoxicity ([2]; Doxorubicin 70 nM first 24 hours, then complete medium 96 hours, MTS at 120 hours): 14% and 12%; % Cytotoxicity ([2]; Doxorubicin 100 nM alone for 120 hours): 24%; % Cytotoxicity ([2]; Doxorubicin 100 nM first 24 hours, then complete medium 72 hours, MTS at 96 hours): 16%; % Cytotoxicity ([2]; Doxorubicin 100 nM first 24 hours, then complete medium 96 hours, MTS at 120 hours): 8%; % Cytotoxicity ([2]; Doxorubicin 100 nM first 24 hours, then complete medium 96 hours, MTS at 120 hours, listed as Doxo.): 16% and 9%; % Cytotoxicity ([2]; Doxorubicin 200 nM first 24 hours, then complete medium 96 hours, MTS at 120 hours): 17%; cytotoxicity at 0.03 µM ([2]; Homo sapiens, NCI-H460, 120 h, Doxorubicin 30 nM alone for 120 hours): 3%; cytotoxicity at 0.07 µM ([2]; Homo sapiens, NCI-H460, 120 h, Doxorubicin 70 nM alone for 120 hours): 28%; cytotoxicity at 0.1 µM ([2]; Homo sapiens, NCI-H460, 120 h, Doxorubicin 100 nM alone for 120 hours): 19%; cytotoxicity at 0.2 µM ([2]; Homo sapiens, NCI-H460, 120 h, Doxorubicin 200 nM alone for 120 hours): 48%; Annexin + ve (%) (cells in early apoptosis) [4]: 30.4%; Annexin and PI + ve (%) (cells in early to late apoptosis) [4]: 8.6%; Live cells (%) (healthy cells) [4]: 60%; PI + ve (%) (dead cells) [4]: 1%; resistance of NCI-H460/R to doxorubicin (NCI-H460/R): 96.2 fold
